The target of one data set is T1, TG2 (Homo sapiens, UniProt P21980).
T1 sequence (P21980 1-687): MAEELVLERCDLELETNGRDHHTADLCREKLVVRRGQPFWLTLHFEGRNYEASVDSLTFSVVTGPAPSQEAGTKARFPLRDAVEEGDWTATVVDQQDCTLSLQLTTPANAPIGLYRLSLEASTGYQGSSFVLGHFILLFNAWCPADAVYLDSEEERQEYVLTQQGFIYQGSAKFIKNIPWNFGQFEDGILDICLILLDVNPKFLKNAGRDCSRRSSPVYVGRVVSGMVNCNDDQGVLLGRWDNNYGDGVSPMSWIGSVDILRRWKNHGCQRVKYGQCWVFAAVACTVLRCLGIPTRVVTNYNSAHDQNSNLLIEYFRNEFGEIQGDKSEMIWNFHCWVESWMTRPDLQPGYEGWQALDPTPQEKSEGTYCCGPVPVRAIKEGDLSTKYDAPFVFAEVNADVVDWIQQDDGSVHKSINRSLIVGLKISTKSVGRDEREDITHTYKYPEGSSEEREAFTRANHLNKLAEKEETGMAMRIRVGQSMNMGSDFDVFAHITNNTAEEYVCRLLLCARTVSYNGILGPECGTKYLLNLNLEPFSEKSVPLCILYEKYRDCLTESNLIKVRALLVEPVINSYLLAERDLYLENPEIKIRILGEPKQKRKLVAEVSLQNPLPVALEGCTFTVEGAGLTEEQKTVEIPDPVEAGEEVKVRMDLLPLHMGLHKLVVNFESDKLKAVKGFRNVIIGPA
Description: Correlation of human pharmacokinetic data with in vitro TG2 inhibition (TG2-mediated deamidation of gluten). From the text: For the estimation of the therapeutic effective human dose, the drug concentration determined in vivo is compared with the drug concentrations resulting in an inhibition of the enzyme activity of TG2 in vitro (FIG. 2). Thereby, the TG2-mediated deamidation of gluten serves as a marker reaction. […] The 90% inhibition at IC90 can be regarded as maximal pharmacodynamic effect.

Data set [1] in a line: Pharmacokinetic after oral administration of the systemic formulation in healthy volunteers (plasma, HPLC-MS/MS). Type of data set: in vivo, human. The procedure: The pharmacokinetic of (S,E)-methyl-7-(1-(2-(2-ethylbutylamino)-2-oxoethyl)-2-oxo-1,2-dihydro-pyridin-3-ylamino)-6-(1-methyl-1H-imidazole-5-carboxamido)-7-oxohept-2-enoate (compound of formula (I)) was investigated in healthy volunteers. Cohorts of 18 subjects each were treated with an oral daily dose of 10, 20, 50 and 100 mg compound of formula (I), respectively over a time period of 7 days.
The determination of said compound in blood plasma was performed by means of a previously validated HPLC-MS/MS method.

The nature of data set [2]: Comparison of Cmax of the formulation (human) with the plain compound (animals), doses as human-equivalent-dose. In kind it is in vivo, human; monkeys, pigs, rabbits, rats and mice. The conditions noted are these: formulation in human vs drug as suspension in animals. The procedure: Due to regulatory and ethical reasons pharmacokinetic data with the plain compound were only generated in animals but not in human subjects. The pharmacokinetic data of the plain compound were derived from several studies in monkeys, pigs, rabbits, rats and mice. In all studies the compound was administered orally after suspension in 0.5% (w/v) methylcellulose in water, pH 5±0.5. Blood samples were taken at various time points within 24 h after drug administration and quantified by means of a previously validated HPLC-MS/MS method. […] In order to compile the data from different species, doses were converted into human-equivalent-dose (HED) taking into account differences in the body surface area between species. The widely accepted species-specific conversion factors defined in the FDA guideline “Estimating the Maximum Safe Starting Dose in Initial Clinical Trials for Therapeutics in Adult Healthy Volunteers” (Issue date 2005) were used.

The nature of data set [3]: Saturation solubility in the pH-range 1 to 6.8 (HPLC/UV). In kind it is physicochemical.
Data set [4] can be described thus: Simulation of the gastrointestinal tract, transfer model (donor medium to FaSSIF acceptor medium). Type of data set: physicochemical. The procedure:
The solubility of the dose as well as the dissolution velocity under physiological conditions are critical parameters for the oral availability at the target site.
The transfer model consists of a vessel with 125 ml donor medium and a vessel with 500 m acceptor medium. The donor medium is transferred by means of pump (Piston pump Sotax CP7) in the acceptor medium so that 625 ml liquid is present in the acceptor vessel at the end of the experiment. The transfer rate amounts 10 ml/min. The donor medium is an artificial gastric juice in a sober state, and contains 34.2 mM sodium chloride (NaCl) in 0.1 hydrogen chloride (HCl). The acceptor medium consists of artificial […] in a sober state (FaSSIF) and contains 3 mM sodium taurocholate, and […] lecithine in phosphate buffer with a pH-value of 6.5. The temperature of the acceptor medium is adjusted to 37.5° C.±0.5° C. For the simulation of the gastrointestine motility, the acceptor medium is stirred continuously with a stirring paddle (50 rpm). A calibrated stirring paddle apparatus 2 according to the conditions of the USP (Sotax AT7 Smart) as an acceptor vessel is used. In FIG. 5, a scheme of the apparatus is illustrated.
The capsule was added to the donor medium.

In data set [5] the test system is adult patients with Celiac Disease (CeD). Briefly: 6-week treatment of adult Celiac Disease patients challenged with 3 g daily gluten, placebo-controlled. Type of data set: in vivo, human. The procedure:
Patients, who were in clinical and histological remission at start of the study were challenged with 3 grams daily gluten intake and randomized to receive placebo or one of 3 doses of the compound of formula (I), i.e. 10 mg, 50 mg or 100 mg.
Each morning after at least 6 hours of fasting, patients took the study drug orally, followed by one biscuit containing 3 g of gluten 30 minutes later, before breakfast. Throughout the 6-week study, patients were required to continue their strict gluten free diet.
The primary endpoint of the study was, whether the compound of formula (I) could prevent gluten-induced change in intestinal mucosal morphology. Before start (baseline) and after end of the 6 weeks of treatment endoscopies were conducted by an experienced gastroenterologist. Four endoscopy forceps biopsy samples with one biopsy bite per pass were taken from the second and third part of the duodenum and preserved in a PAXgene fixative containers. Tissue slides of the biopsies were scanned as whole-slide images and the villous height (VH) and crypt depth (CrD) in the mucosal samples were measured. In addition, the density of CD3+ intra-epithelial lymphocytes (IELs), an indicator of inflammation, was counted. Symptoms of CeD the patients were recorded by patient-reported outcomes (PROs) and measured by the Celiac Symptom Index (CSI) (Ref1) and Celiac Disease Questionnaire (CDQ) (Ref2).

A short description of data set [6]: Side effects in humans at doses of up to 500 mg. In kind it is in vivo. The procedure: Moreover, side effects related to potential off-target actions were not observed in humans even at doses of up to 500 mg. As aforementioned, this is particularly surprising due to the fact that TG2 is ubiquitously expressed in almost all cell types and cell compartments, it is present on the cell surface and gets secreted to the extracellular matrix, and is present in various organs, and thus it could be envisioned that off-target effects would be most likely.

Data set [7] has as its target T2, small intestinal tissue transglutaminase (TG2) (Mus musculus, UniProt P21981).
T2 construct: from tissue; host or cells: small intestine (jejunum) and colon of the treated animals
T2 sequence (P21981 1-686): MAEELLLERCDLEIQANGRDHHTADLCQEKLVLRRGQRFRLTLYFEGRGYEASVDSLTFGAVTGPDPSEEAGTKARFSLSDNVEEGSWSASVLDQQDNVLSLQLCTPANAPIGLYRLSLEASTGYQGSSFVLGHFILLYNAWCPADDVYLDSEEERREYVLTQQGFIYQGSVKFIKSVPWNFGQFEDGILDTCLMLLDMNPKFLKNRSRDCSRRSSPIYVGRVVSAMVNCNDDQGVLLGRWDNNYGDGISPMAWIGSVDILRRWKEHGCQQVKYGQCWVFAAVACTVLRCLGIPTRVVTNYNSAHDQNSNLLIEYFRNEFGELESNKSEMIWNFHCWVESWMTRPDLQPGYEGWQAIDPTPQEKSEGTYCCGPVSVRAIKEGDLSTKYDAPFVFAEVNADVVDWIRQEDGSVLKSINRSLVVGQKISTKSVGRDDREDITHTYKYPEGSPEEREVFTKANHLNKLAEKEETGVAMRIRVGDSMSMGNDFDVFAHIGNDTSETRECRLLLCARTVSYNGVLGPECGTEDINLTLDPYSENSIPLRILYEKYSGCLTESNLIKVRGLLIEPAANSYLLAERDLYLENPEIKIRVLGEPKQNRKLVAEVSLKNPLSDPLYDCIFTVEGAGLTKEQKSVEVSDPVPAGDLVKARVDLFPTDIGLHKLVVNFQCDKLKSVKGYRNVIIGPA
As to conditions: plain, unformulated compound, cited from earlier work.

Here are results for two compounds from patent publication US12661347B2 (Dr. Falk Pharma GmbH, priority 2020, dated 2026).

The structures appear in SMILES notation. Where two headings read alike, the source gives them in different places.

As to `CCC(CC)CNC(=O)Cn1cccc(NC(=O)[C@H](CC/C=C/C(=O)OC)NC(=O)c2cncn2C)c1=O` [(S,E)-methyl-7-(1-(2-(2-ethylbutylamino)-2-oxoethyl)-2-oxo-1,2-dihydro-pyridin-3-ylamino)-6-(1-methyl-1H-imidazole-5-carboxamido)-7-oxohept-2-enoate], at TG2 (human), the “dose sufficient to achieve a therapeutic effective drug concentration” value is 20 to 50 mg.

For the compound `CCC(CC)CNC(=O)Cn1cccc(NC(=O)[C@H](CC/C=C/C(=O)OC)NC(=O)c2cncn2C)c1=O` [compound of formula (I), (S,E)-methyl-7-(1-(2-(2-ethylbutylamino)-2-oxoethyl)-2-oxo-1,2-dihydro-pyridin-3-ylamino)-6-(1-methyl-1H-imidazole-5-carboxamido)-7-oxohept-2-enoate], the “increase of drug concentration with dose” value in data set [1] (dose range 10-100 mg, formulation) is “dose-proportionally”. Further, in data set [1] (human, plasma, oral daily dose 10, 20, 50, 100 mg for 7 days, hard gelatine capsule of example 2, read-out: tmax (maximum of plasma drug level after administration)), the Tmax was ~1 h. In addition, the “drug level in vivo compared with in vitro TG2 inhibition” value is “half maximal inhibition (IC50) of TG2 is already achieved” on TG2 (dose of 10 mg) and “exceeding the IC90” at TG2 (dose of 50 mg of the new developed formulation). Besides, the “drug concentration normalized to body weight versus animal studies with suspension” value in data set [2] was “remarkably higher”. The “saturation solubility at pH=6.8 (duodenum) compared with pH~1” value in data set [3] is recorded as “much lower”. In addition, the solubility in data set [4] (FaSSIF (acceptor medium), FaSSIF, phosphate buffer pH 6.5, read-out: solubility in the acceptor medium) was 200 µg/mL; in data set [4] (FaSSIF medium, pH 6.5, fassif, thermodynamic from solid, pH-value of 6.5, read-out: saturation solubility of the pure drug), 180 µg/mL; in data set [4] (artificial gastric juice, sober state (donor medium), simulated gastric fluid, 34.2 mM NaCl in 0.1 HCl, read-out: solubility in the donor medium), 4400 µg/mL. The “effect of gluten on VH:CrD (mucosal deterioration)” value in data set [5] (10 mg dose, baseline to week 6) is listed as “prevented mucosal deterioration to a lesser degree”. The “CDQ scores, change from baseline to week 6” value in data set [5] (10 mg, 50 mg and 100 mg groups, increase = better quality of life) is reported as “increased”. The “effect of gluten on VH:CrD (villus height-to-crypt depth ratio)” value was “almost completely prevented the deleterious effect of gluten on VH:CrD” in data set [5] (daily dose 50 mg, baseline to week 6) and “almost completely prevented the deleterious effect of gluten on VH:CrD” in data set [5] (daily dose 100 mg, baseline to week 6). Also, the “gluten-induced symptoms and quality of life” value in data set [5] (hard gelatine capsule formulation of example 2) is reported as “significantly improved”. Moreover, the “safety profile (frequency and severity of adverse events)” value in data set [5] (hard gelatine capsule formulation of example 2, 6 weeks) is given as “comparable to placebo”. For the same compound, the intestinal mucosal injury result in data set [5] (hard gelatine capsule formulation of example 2, moderate dose of daily gluten) is given as “effectively prevented intestinal mucosal injury”. Also, in data set [6], the “side effects related to potential off-target actions” value was “not observed”. Further, the “activity of intestinal TG2” value in data set [7] (TG2 activated by poly(I:C)) is given as “reduced the activity of intestinal TG2 to normal levels”. The intestinal inflammation result in data set [7] is on record as “subdued intestinal inflammation”. For the same compound, in data set [7], the safety of administration result is reported as “safe”.
